Measurements: ChEMBL document CHEMBL1150095, “Antitumor activity and stereochemistry of acetylenic alcohols from the sponge Cribrochalina vasculum” (1995)
Calls of active or inactive are those of the source. No cut-off for these calls is given here.

How the values were obtained:
NCI-H522 = test: Antitumor activity against human NCI-H522 cells; assay type: functional
IGROV-1 = test: Antitumor activity against human IGROV1 cells; assay type: functional

SMILES	Activity (NCI-H522)	Activity (IGROV-1)
C#C[C@@H](O)/C=C/CCCCCCCCCCC(C)CCCC (stereo partly specified)	Active	Active
C#C[C@@H](O)/C=C/CCCCCCCCCCCCCC(C)C	Active	Active
C#C[C@@H](O)/C=C/CCCCCCCCCCCCCCCC	Active	Active
